According to publication PMC7914897, “Cytotoxic Potential of a-Azepano- and 3-Amino-3,4-SeCo-Triterpenoids” (International Journal of Molecular Sciences, 2021):

Key:
SF-539 (CNS cancer) = test: NCI-60 screen (SRB, 48 h); details: Homo sapiens
HT29 (Colon cancer) = test: NCI-60 screen (SRB, 48 h); details: Homo sapiens
UO-31 (Renal cancer) = test: NCI-60 screen (SRB, 48 h); details: Homo sapiens
BT-549 (Breast cancer) = test: NCI-60 screen (SRB, 48 h); format: cell-based; details: Homo sapiens
SK-MEL-2 (Melanoma) = test: NCI-60 screen (SRB, 48 h); details: Homo sapiens
Melanoma subpanel = test: NCI-60 screen, subpanel; details: Homo sapiens
HCT-116 (Colon cancer) = test: NCI-60 screen (SRB, 48 h); details: Homo sapiens
MDA-MB-435 (Melanoma) = test: NCI-60 screen (SRB, 48 h); format: cell-based; details: Homo sapiens
NSC lung cancer subpanel = test: NCI-60 screen, subpanel; details: Homo sapiens
Prostate cancer subpanel = test: NCI-60 screen, subpanel; details: Homo sapiens
CCRF-CEM (Leukemia) = test: NCI-60 screen (SRB, 48 h); details: Homo sapiens
SF-295 (CNS cancer) = test: NCI-60 screen (SRB, 48 h); details: Homo sapiens
KM12 (Colon cancer) = test: NCI-60 screen (SRB, 48 h); details: Homo sapiens
A498 (Renal cancer) = test: NCI-60 screen (SRB, 48 h); details: Homo sapiens
[1] = test system: NIH 3T3 (non-malignant mouse fibroblasts); test: SRB cytotoxicity assay, 72 h; format: cell-based; details: Mus musculus, NIH3T3; NIH 3T3, 72 h, cut-off 30 µM; read-out: EC50
In short: (§1)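 Exponentially growing cells were seeded to avoid confluence, then exposed after 24 h to serial compound dilutions (0–30 µM; DMSO ≤0.5%) for 72 h. Cells were fixed with 10% TCA at 4 °C, stained with 0.4% SRB, and bound dye dissolved in 10 mM Tris base was read at 570 nm. EC50 came from survival relative to untreated controls.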

SN12C (Renal cancer) = test: NCI-60 screen (SRB, 48 h); details: Homo sapiens
MCF7 (Breast cancer) = test: NCI-60 screen (SRB, 48 h); details: Homo sapiens
K-562 (Leukemia) = test: NCI-60 screen (SRB, 48 h); details: Homo sapiens, K562
CNS cancer subpanel = test: NCI-60 screen, subpanel; details: Homo sapiens
[2] = test system: A2780 (ovarian carcinoma); test: SRB cytotoxicity assay, 72 h; format: cell-based, human; details: Homo sapiens; A2780, 72 h, cut-off 30 µM; read-out: EC50
In short: as §1

[3] = test system: A375 (malignant melanoma); test: SRB cytotoxicity assay, 72 h; format: cell-based, human; details: Homo sapiens, A-375, 72 h, A375, 72 h, cut-off 30 µM; read-out: EC50
In short: as §1

MCF-7 (breast carcinoma) = test: SRB cytotoxicity assay, 72 h; format: cell-based, human; details: Homo sapiens, MCF7; MCF-7, 72 h, cut-off 30 µM; read-out: EC50
In short: as §1

[4] = test system: HT29 (colorectal carcinoma); test: SRB cytotoxicity assay, 72 h; format: cell-based, human; details: Homo sapiens, HT-29; HT29, 72 h, cut-off 30 µM; read-out: EC50
In short: as §1

[5] = test system: FaDu (hypopharyngeal carcinoma); test: SRB cytotoxicity assay, 72 h; format: cell-based, human; details: Homo sapiens, cut-off 30 µM, read-out: EC50
In short: as §1

MALME-3M (Melanoma) = test: NCI-60 screen (SRB, 48 h); details: Homo sapiens

C=C(C)[C@@H]1CCC=C2CC[C@]3(C)[C@H](CC[C@@H]4[C@@]5(C)CCCNC(C)(C)[C@@H]5CC[C@]43C)[C@H]21 [Compound 8]
GI50 (SF-539 (CNS cancer); SF-539): 1520 nM | IC (TGI) (SF-539 (CNS cancer); SF-539, 48 h, read-out: TGI): 2990 nM | GI50 (HT29 (Colon cancer); HT-29): 1200 nM | IC (TGI) (HT29 (Colon cancer); HT-29, 48 h, read-out: TGI): 2580 nM | CC50 (HT29 (Colon cancer); HT-29, read-out: LC50): 5560 nM | GI50 (UO-31 (Renal cancer); UO-31): 1520 nM | IC (TGI) (UO-31 (Renal cancer); UO-31, 48 h, read-out: TGI): 2890 nM | CC50 (UO-31 (Renal cancer); UO-31, read-out: LC50): 5520 nM | GI50 (BT-549 (Breast cancer); BT-549): 1680 nM | IC (TGI) (BT-549 (Breast cancer); BT-549, 48 h): 3230 nM | GI50 (SK-MEL-2 (Melanoma); SK-MEL-2): 2010 nM | IC (TGI) (SK-MEL-2 (Melanoma); SK-MEL-2, 48 h, read-out: TGI): 3690 nM | CC50 (SK-MEL-2 (Melanoma); SK-MEL-2, read-out: LC50): 6800 nM | IC (TGI) (Melanoma subpanel; 48 h, read-out: TGI MG_MID): 3460 nM | GI50 (Melanoma subpanel; read-out: GI50 MG_MID): 1840 nM | CC50 (Melanoma subpanel; read-out: LC50 MG_MID): 6730 nM | GI50 (HCT-116 (Colon cancer); HCT-116): 1370 nM | activity at 10 µM (HCT-116 (Colon cancer); HCT-116, 48 h, read-out: Growth % of the Most Sensitive Cell Lines): -96.2% | IC (TGI) (HCT-116 (Colon cancer); HCT-116, 48 h, read-out: TGI): 2820 nM | GI50 (MDA-MB-435 (Melanoma); MDA-MB-435): 1870 nM | IC (TGI) (MDA-MB-435 (Melanoma); MDA-MB-435, 48 h, read-out: TGI): 3490 nM | CC50 (MDA-MB-435 (Melanoma); MDA-MB-435, read-out: LC50 (the source's name)): 6510 nM | IC (TGI) (NSC lung cancer subpanel; 48 h, read-out: TGI MG_MID): 3300 nM | GI50 (NSC lung cancer subpanel; read-out: GI50 MG_MID): 1730 nM | CC50 (NSC lung cancer subpanel; read-out: LC50 MG_MID): 6180 nM | IC (TGI) (Prostate cancer subpanel; 48 h, read-out: TGI MG_MID): 3200 nM | GI50 (Prostate cancer subpanel; read-out: GI50 MG_MID): 1710 nM | CC50 (Prostate cancer subpanel; read-out: LC50 MG_MID): 5970 nM | GI50 (CCRF-CEM (Leukemia)): 2270 nM | IC (TGI) (CCRF-CEM (Leukemia); 48 h, read-out: TGI): 5630 nM | CC50 (CCRF-CEM (Leukemia); read-out: LC50): > 100000 nM | GI50 (SF-295 (CNS cancer); SF-295): 1810 nM | IC (TGI) (SF-295 (CNS cancer); SF-295, 48 h, read-out: TGI): 3260 nM | CC50 (SF-295 (CNS cancer); SF-295, read-out: LC50): 5880 nM | GI50 (KM12 (Colon cancer); KM12): 1930 nM | IC (TGI) (KM12 (Colon cancer); KM12, 48 h, read-out: TGI): 3600 nM | CC50 (KM12 (Colon cancer); KM12, read-out: LC50): 6710 nM | GI50 (A498 (Renal cancer); A498): 2030 nM | IC (TGI) (A498 (Renal cancer); A498, 48 h, read-out: TGI): 3790 nM | CC50 (A498 (Renal cancer); A498, read-out: LC50): 7080 nM | EC50 [1]: 2410 ± 500 nM | GI50 (SN12C (Renal cancer)): 1790 nM | IC (TGI) (SN12C (Renal cancer); 48 h, read-out: TGI): 3310 nM | CC50 (SN12C (Renal cancer); read-out: LC50): 6120 nM | GI50 (MCF7 (Breast cancer); MCF7): 1370 nM | IC (TGI) (MCF7 (Breast cancer); MCF7, 48 h, read-out: TGI): 2920 nM | CC50 (MCF7 (Breast cancer); MCF7, read-out: LC50): 6220 nM | GI50 (K-562 (Leukemia)): 320 nM | IC (TGI) (CNS cancer subpanel; 48 h, read-out: TGI MG_MID): 3310 nM | GI50 (CNS cancer subpanel; read-out: GI50 MG_MID): 1790 nM | CC50 (CNS cancer subpanel; read-out: LC50 MG_MID): 5970 nM | EC50 [2]: 1880 ± 200 nM | EC50 [3]: 1780 ± 100 nM | EC50 (MCF-7 (breast carcinoma)): 1410 ± 100 nM | EC50 [4]: 1300 ± 200 nM | EC50 [5]: 1750 ± 200 nM | GI50 (MALME-3M (Melanoma)): 1700 nM | IC (TGI) (MALME-3M (Melanoma); 48 h, read-out: TGI): 3460 nM
